# Laboratory results taken from patent publication US20160280670A1, “NOVEL COMPOUNDS FOR REGENERATION OF TERMINALLY-DIFFERENTIATED CELLS AND TISSUES” (ACOUSIA THERAPEUTICS GMBH, priority 2013, published 2016).
# System: inner ear progenitor cells from the postnatal sensory organ of the mouse (differentiated sensory epithelial patches, "mini ears")
# Experiment: Screening assay: EdU proliferation in differentiated inner ear progenitor sphere patches ("mini ears")
# Assay type: cell-based
# Settings: test item 5 μM for 96 h
# Excerpt: A screening assay was employed according to an experimental protocol that enables the isolation of inner ear progenitor cells from the postnatal sensory organ of the mouse preparations in vitro. These isolated progenitors generate typical spheres that express a comprehensive set of marker genes that define the early developing sensory epithelium in the progenitor cell state. Under appropriate conditions these spheres can differentiate into epithelial patches that express marker genes that are characteristic of differentiating hair cells and supporting cells as found in the native organ of Corti. These differentiated sensory epithelial patches, tagged “mini ears”, can be generated in sufficient numbers for screening purposes in a low-throughput format. For an appropriate read-out, dedifferentiation was detected with three parameters: (i) labelling of Sox2 expression (Sox2=transcription factor SRY (sex determining region Y-box 2), (ii) an increase in the incorporation of EdU indication proliferation (EdU=thymidine analogue 5-Ethynyl2′-deoxyuridine), and (iii) labelling using the hair cell marker Myosin VIIA.
# Compounds were screened at a standard concentration of 5 μM. […]
# For ease of comparison the number of EdU positive cells was normalized to the DMSO only condition. Thus, the proliferation activity is expressed as “fold EdU positive cells”. […]
structure (smiles),measurement,setting,value
"C[C@](N)(Cc1c[nH]c2ccccc12)c1nc(C(=O)NC2CCCCC2)co1.Cl [Compound 13, (S)-2-(2-amino-1-(1H-indol-3-yl)propan-2-yl)-N-cyclohexyloxazole-4-carboxamide hydrochloride]",Mean percentage of EdU positive cells,"EdU for the last 5 hours, patches after 14 days differentiation",3.59%
same,"Fold EdU positive re DMSO (proliferation activity, ""fold EdU positive cells"")","number of EdU positive cells normalized to DMSO only condition, hydrochloride",2.04 fold
